This is an account of results in US20090233958A1, “(+)-BELOXEPIN AND METHODS FOR ITS SYNTHESIS AND USE” (priority 2008, published 2009).

Molecules are shown by their SMILES. Where two headings read alike, the source gives them in different places.

For data set [1], the system named is depression. The following applies: based on HAMD score reduction; cited from earlier work.
The target of data set [2] is T1, NET (Rattus norvegicus, UniProt Q63380).
T1 construct: from tissue; host or cells: rat hypothalamus synaptosomes
Put plainly: NE uptake inhibition assay, rat hypothalamus synaptosomes. The class given is biochemical. The following applies: read-out: NET IC50 (norepinephrine reuptake inhibition).

Data set [3] has as its target T2, 5HT2C receptor (Homo sapiens, UniProt P28335).
T2 sequence (P28335 33-458): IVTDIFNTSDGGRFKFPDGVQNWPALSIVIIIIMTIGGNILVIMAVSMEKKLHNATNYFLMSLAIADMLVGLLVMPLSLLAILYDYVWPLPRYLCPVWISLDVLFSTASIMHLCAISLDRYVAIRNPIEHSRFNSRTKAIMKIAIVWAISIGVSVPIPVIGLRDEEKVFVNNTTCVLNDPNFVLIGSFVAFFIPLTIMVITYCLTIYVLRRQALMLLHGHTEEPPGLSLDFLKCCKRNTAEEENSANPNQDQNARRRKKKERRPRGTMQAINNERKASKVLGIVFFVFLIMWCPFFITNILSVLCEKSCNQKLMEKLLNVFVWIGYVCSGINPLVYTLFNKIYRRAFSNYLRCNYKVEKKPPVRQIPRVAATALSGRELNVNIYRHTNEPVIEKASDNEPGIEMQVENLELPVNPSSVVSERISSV
The following applies: Claghorn & Lesem 1996; cited from earlier work.

The test system of data set [4] is REM sleep. As to conditions: 25-400 mg, cited from earlier work.
Data set [5] concerns major depression. As to conditions: subsequent clinical trials; Paanakker et al. 1998; cited from earlier work.
For data set [6], the system named is noradrenergic, histaminergic and cholinergic receptors. As to conditions: Sperling & Demling 1997; cited from earlier work.
The conditions of data set [7]: cited from earlier work.
Data set [8] concerns animal models of depression. The following applies: cited from earlier work.
Data set [9] relates to L5 SNL rats. The data set is described as follows: L5-Single Nerve Ligation model of neuropathic pain, tactile allodynia (von Frey). The class given is in vivo, rat. The following applies: for antiallodynic effect: 8 days post surgery, 30 min post treatment, FIG. 1; for antiallodynic effect over time: tested 30, 60, 120, 240 min. As to the method: Protocol. The antiallodynic activity of (+)- and (−)-beloxepin were tested in vivo using the L5-Single Nerve Ligation model of non-nociceptive neuropathic pain as described in LaBuda & Little, 2005, J. Neurosci. Methods 144:175-181. The test animals were placed in a Plexiglas chamber (10 cm×20 cm×25 cm) and habituated for 15 minutes. The chamber was positioned on top of a mesh screen so that von Frey monofilaments could be presented to the plantar surface of both hindpaws. Measurement of tactile sensitivity for each hind paw were obtained using the up/down method (Dixon, 1980, Annu. Rev. Pharmacol. Toxicol. 20:441-462) with seven Frey monofilaments (0.4, 1, 2, 4, 6, 8 and 15 grams). Each trial started with a von Frey force of 2 grams delivered to the right hind paw for approximately 1-2 seconds and then the left hind paw. If there was no withdrawal response, the next higher force was delivered. If there was a response, the next lower force was delivered. This procedure was performed until no response was made at the highest force (15 grams) or until four stimuli were administered following the initial response. The 50% paw withdrawal threshold for each paw was calculated using the following formula: [Xth]log=[vFr]log+ky, where [vFr] is the force of the last von Frey used, k=0.2249 which is the average interval (in log units) between the von Frey monofilaments, and y is a value that depends upon the pattern of withdrawal responses (Dixon, 1980, supra). […] Testing for tactile sensitivity was performed twice and the mean 50% withdrawal value assigned as the tactile sensitivity for the right and left paws for each animal.
Results. The antiallodynic effects produced by (+)-beloxepin (30 mg/kg IP) and (−)-beloxepin (30 mg·kg IP) in L5 SNL rats 8 days post surgery are illustrated in FIG. 1. In this experiment, at 8 days post surgery, rats were treated with vehicle or beloxepin enantiomers (30 mg/kg IP) and tested for tactile allodynia at 30 min post treatment. […] No side effects were observed following treatment with either enantiomer.
The antiallodynic effects produced by (+)-beloxepin (30 mg/kg IP) in L5 SNL rats 14 days post surgery are illustrated in FIG. 2. In this experiment, at 14 days post surgery, rats were treated with vehicle or (+)-beloxepin and tested for tactile allodynia at 30, 60, 120 and 240 min post treatment. Vehicle treated rats were tested at 30 min post treatment.
Protocol. A time course experiment was performed with (−)-beloxepin (60 mg/kg PO) in L5 SNL rats at 7 days post-surgery. Rats were tested at 30, 60, 120, and 240 minutes post-drug.
Protocol. A time course experiment was also performed with (+)-beloxepin (60 mg/kg PO) in L5 SNL rats at 14 days post-surgery. Rats were tested at 30, 60, 120, and 240 minutes post-drug.

For data set [10], the system named is rat 50° C. hot plate model. The data set is described as follows: Rat 50° C. hot plate assay. The class given is in vivo. The following applies: for antinociceptive activity: 30 mg/kg IP, 30, 60 and 120 minutes after treatment. As to the method: Protocol. Rats were treated with vehicle, 30 mg/kg IP of (−)-beloxepin, or 30 mg/kg IP of (+)-beloxepin and then were placed on a hot plate (50° C.) 30, 60, or 120 minutes after administration of the vehicle or beloxepin enantiomer. Rats treated with 3 mg/kg SC of morphine and tested 30 min post-treatment were used as a positive control in these experiments.
In general terms: Thermal pain tests record how soon the animal reacts.

Data set [11] concerns rat hindpaw incision model. Put plainly: Rat hindpaw incision model of post-operative pain, tactile allodynia. The class given is in vivo. As to conditions: 30 mg/kg IP, 24 hours post-surgery, tested 30, 60, 120, 240 min. As to the method: Protocol. A time course experiment was also performed with (−)-beloxepin in the hindpaw incision model. At 24 hours post-surgery, rats received vehicle or (−)-beloxepin (30 mg/kg IP). Rats were tested for tactile allodynia at 30, 60, 120 and 240 minutes after administration of (−)-beloxepin.
Protocol. Another time course experiment was performed with (+)-beloxepin in the hindpaw incision model. At 24 hours post-surgery, rats received vehicle or (+)-beloxepin (30 mg/kg IP). Rats were tested for tactile allodynia at 30, 60, 120 and 240 minutes after administration of (+)-beloxepin.

T1 sequence (Q63380 1-617): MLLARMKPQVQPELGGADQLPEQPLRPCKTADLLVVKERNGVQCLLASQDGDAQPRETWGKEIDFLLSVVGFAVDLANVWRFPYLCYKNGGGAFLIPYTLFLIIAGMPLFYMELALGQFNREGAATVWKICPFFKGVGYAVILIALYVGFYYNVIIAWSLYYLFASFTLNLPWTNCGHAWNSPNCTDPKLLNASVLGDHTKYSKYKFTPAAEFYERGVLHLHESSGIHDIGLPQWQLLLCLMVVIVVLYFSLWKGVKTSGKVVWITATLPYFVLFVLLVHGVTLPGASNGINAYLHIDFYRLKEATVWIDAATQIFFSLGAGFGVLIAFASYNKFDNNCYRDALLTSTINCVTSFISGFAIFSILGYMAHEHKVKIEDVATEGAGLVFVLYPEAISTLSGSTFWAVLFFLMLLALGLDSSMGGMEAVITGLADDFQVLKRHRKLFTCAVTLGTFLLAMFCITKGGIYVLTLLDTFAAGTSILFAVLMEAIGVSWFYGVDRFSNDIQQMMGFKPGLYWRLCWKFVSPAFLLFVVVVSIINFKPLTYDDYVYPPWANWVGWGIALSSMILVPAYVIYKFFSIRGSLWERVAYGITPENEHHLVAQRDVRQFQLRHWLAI

`Cc1cccc2c1Oc1ccccc1C1(O)CCN(C)CC21` (racemic) [(±)-beloxepin, cis-1,2,3,4,4a,13b-hexahydro-2,10-dimethyldiben-[2,3:6,7]oxepino[4,5c]pyridine-4-a-ol]]: in [1], the “fraction of patients with moderate to good response” value was “⅔”. Moreover, the IC50 in data set [2] worked out at 130 nM. The “affinity for the 5HT2C receptor” value in data set [3] was “modest affinity”. Further, the “total duration of nocturnal REM sleep” value in data set [4] (EEG) is on record as “decreased”. Also, the REM latency entry in [4] (acutely and sub-chronically, EEG) is “dose-dependently prolonged REM latency”. For the same molecule, the “sedation or other side effects” value in [4] (human volunteers) was “No sedation or other side effects were observed”. The “efficacy for the treatment of major depression” value in data set [5] was “insufficient efficacy”. The “affinity for noradrenergic, histaminergic and cholinergic receptors” value in data set [6] was “no or very weak affinity”. Also, the adverse effects result in [7] (healthy volunteers, up to 800 mg/day) is “No important adverse effects were observed”. Besides, the tmax in data set [7] (steady-state, doses of 50 to 800 mg, healthy normal subjects) is 1.17 h. Moreover, the antidepressant properties entry in data set [8] (acquired immobility, reserpine-induced hypothermia, conditioned avoidance) is “exhibit antidepressant properties”. In addition, the “sedation, motor impairment or other side effects” value in data set [8] (preclinical depression tests) was “did not cause sedation, motor impairment or other untoward side effects”.
As for `Cc1cccc2c1Oc1ccccc1C1(O)CCN(C)CC21` (single isomer, unassigned; (+)) [(+)-beloxepin], the antiallodynic effect entry in data set [9] (30 mg/kg IP) is recorded as “not statistically significant, (+)-beloxepin produced an antiallodynic effect that was comparable to that observed with (−)-beloxepin”. In data set [9] (30 mg/kg IP, 14 days post surgery), the “maximal efficacy, % of the threshold of vehicle-treated rats” value is 423%. Also, the “antiallodynic effect over time” value in data set [9] (30 mg/kg IP, 14 days post surgery, FIG. 2) was “significant antiallodynic effects at the 30 and 60 min time points”; in [9] (60 mg/kg PO, 14 days post-surgery, FIG. 4) it was “did not produce significant antiallodynic effects at any time point”; in [11], “significant antiallodynic effect at the 30 and 60 minute time points”. Further, in data set [10] (30 mg/kg IP, 30, 60, 120 min, FIG. 8), the “antinociception, % MPE values” is given as 10-17%. Also, the antinociceptive activity entry in data set [10] is “no antinociception was observed”.
In the case of `Cc1cccc2c1Oc1ccccc1C1(O)CCN(C)CC21` (single isomer, unassigned; (-)) [(−)-beloxepin], the antiallodynic effect result in data set [9] (30 mg/kg IP) is on record as “significant antiallodynia”. The “antiallodynic effect over time” value was “significant antiallodynic effects at the 60 and 120 minute time points” in data set [9] (60 mg/kg PO, 7 days post-surgery, FIG. 3); “significant antiallodynic effect at the 30 and 120 minute time point” in [11]. In addition, in [10], the antinociceptive activity result is “robust antinociceptive activity at 30, 60, and 120 minutes after treatment”. For the same molecule, the IC50 in data set [2] ([3H]norepinephrine, rat hypothalamus synaptosomes, 20 min 37° C.) was found to be 120 nM.

What is called IC50 is the point on the concentration scale where inhibition reaches its midpoint.
